The experiment deals with C57BL/6 and p47phox-/- mice infected intranasally with A. fumigatus conidia. Put plainly: Lung inflammation model: C57BL/6 and p47phox-/- mice infected intranasally with A. fumigatus. Format: in vivo. Particulars: p47phox-/- aspergillosis mice. As to the method:
In vivo models mimicking human pathology such as lung and gut inflammation were prepared. A model of lung inflammation was tested using C57BL/6 and p47phox-/- mice. The mice were infected with A. fumigatus intranasally and treated them with Tβ4 for 7 consecutive days starting a week after the infection. LC3-II (FIG. 1F) and DAPK1 (FIG. 1G) expression were both defective in p47phox-/- mice, but restored by Tβ4 and ablated (LC3-II) upon siTβ4 (FIGS. 10A and 10B). In addition, gut inflammation was tested using the same mouse model. Acute colitis in p47phox-/- mice was initiated by administering […] in drinking water for 7 days followed by 7 days of DSS-free autoclaved water. Subsequently, Tβ4 was therapeutically administered daily for 7 days, after DSS treatment, at the time at which mice started to lose weight. Consistent with previous findings (de Luca et al., 2014), LC3-II (FIG. 1H) and DAPK1 (FIG. 1I) expression were both defective in the colon ofp47phox-/- mice with colitis as opposed to WT mice but restored upon treatment with T134 (FIGS. 1H and 1I). DAPK1 expression in colon lysates of C57BL/6 and p47^phox-/- mice subjected to DSS-induced colitis for a week and treated intraperitoneally with 5 mg/kg Tβ4 for 7 consecutive days after DSS treatment, n=6-10 mice per group. Data are presented as mean ±SD and are representative of two experiments. Mice were categorized as Naive (uninfected or untreated mice) or None (infected mice). For immunoblotting, normalization was performed on mouse β-actin or Gapdh and corresponding pixel density or ratio is depicted. For immunofluorescence, nuclei were counterstained with DAPI. Photographs were taken with a high-resolution microscope (Olympus BX51), 40× and 100× magnification. LC3 mean fluorescence intensity (MFI) was measured with the ImageJ software. In FIGS. 1F-1H, n=6-10 mice per group. Data are presented as mean ±SD and are representative of two experiments. Naïve, uninfected or untreated mice. None, infected mice.
Viable conidia from the A. fumigatus Af293 strain were obtained as described (De Luca et al., 2012). Mice were anesthetized in a plastic cage by inhalation of 3% isoflurane (Forane Abbot) in oxygen before intranasal instillation of 2×10^7 resting conidia/20 μl saline. For survival curves, p47^phox-/- mice were challenged with […] conidia/20 μl saline. Tβ4 was administered intraperitoneally (i.p.) at the dose of 5 mg/kg at an effective dose as described (Badamchian et al., Thymosin beta(4) reduces lethality and down-regulates inflammatory mediators in endotoxin-induced septic shock. Int Immunopharmacol, 2003 3(8): p. 1225-33), every day in concomitance with (days 0→7) or after (days 7→14) infection. DMOG (Merck Millipore) was administered i.p. at the dose of 8 mg/mouse concomitantly to the infection. For Hif1a silencing, each mouse received intranasal administration of 10 mg/kg unmodified siRNA [Duplex name mm.Ri.Hif1a.13.1 (IDT); 5′-[…]-3′; 3′-[…] -5′] and Tmsb4x silencing [Duplex name mm.Ri.Tmsb4x.13.1; 5′-[…]-3′; 3′-[…] -5′], or equivalent dose of nonspecific control siRNA duplex in a volume of 20 μl of duplex buffer (IDT). Intranasal siRNA was given once the day before infection and 1, 3 and 5 days after infection (Iannitti et al., 2013 Hypoxia promotes danger-mediated inflammation via receptor for advanced glycation end products in cystic fibrosis. Am J Respir Crit Care Med 188:1338-1350). It is known that lung-specific siRNA delivery can be achieved by intranasal administration without the use of viral vectors or transfection agents in vivo (Iannitti et al., 2013 Th17/Treg imbalance in murine cystic fibrosis is linked to indoleamine 2,3-dioxygenase deficiency but corrected by kynurenines. Am J Respir Crit Care Med 187:609-620). Mice were sacrificed 7 or 14 days post infection. Fungal burden was determined by qPCR and expressed as conidial equivalents (CE). Lung tissue was aseptically removed and homogenized in 3 ml of sterile saline. […]

`COC(=O)CNC(=O)C(=O)OC` [DMOG, dimethyloxalylglycine, reference compound]: the fungal burden result (DMOG for 5 days (FIG. 7A)) was “reduced”. Further, the lung pathology entry (DMOG for 5 days (FIG. 7B)) is “ameliorated”. Further, the HIF-1α expression entry (DMOG for 5 days (FIG. 7C)) is “increased”. Further, the HIF-1α-responsive genes result (DMOG for 5 days (FIG. 7D)) was “up-regulated”.

The values are drawn from patent US20220241378A1, “COMPOSITIONS AND METHODS FOR TREATMENT OF CHRONIC GRANULOMATOUS DISEASE” (priority 2019, published 2022).
